According to ChEMBL document CHEMBL1134042, “[Lys3]Didemnins as potential affinity ligands” (Bioorg Med Chem Lett, 2001):

Legend:
[1] = Antiproliferative activity as 50% growth inhibition of NCI-60 human tumor cells; type: functional
[2] = Cell free protein biosynthesis inhibition activity was determined; type: functional, Homo sapiens
[3] = Cytotoxicity in NCI-60 human tumor cells; type: functional; settings: read-out: LC50 (the source's name)
[4] = Total growth inhibition of NCI-60 human tumor cells by the compound was evaluated; type: functional

CC[C@H](C)[C@H]1NC(=O)[C@@H](NC(=O)[C@@H](CC(C)C)N(C)C(=O)[C@@H]2CCCN2C(=O)C(C)O)[C@@H](C)OC(=O)[C@H](Cc2ccc(OC)cc2)N(C)C(=O)[C@@H]2CCCN2C(=O)[C@H](CCCCN)NC(=O)[C@@H](C)C(=O)[C@H](C(C)C)OC(=O)C[C@@H]1O (some centres undefined)
GI50 [1]: 6.4 µM | IC50 [2]: 154 µM | CC50 [3]: 25 µM | TGI [4]: 22 µM
